Test results from publication PMC10951066, “The self-reactive FVIII T cell repertoire in healthy individuals relies on a short set of epitopes and public clonotypes” (Frontiers in Immunology, 2024).

Key:
[1] = system: CD4 T cells from healthy donors; assay: Large-scale CD4 T cell epitope mapping by IFN-γ ELISPOT (16 donors); format: cell-based, human; settings: for nb positive T cell lines: across all 16 donors; for cumulative donor coverage (%): cumulative over peptides ranked by donor coverage; for Donor coverage ( %): of 16 donors; for responding donors: of 16 healthy donors, individual peptide 10 µg/ml; for response intensity ( %): percentage of 872 FVIII-specific T cell lines
Excerpt: PBMCs were purified from the whole blood of anonymous healthy donors, who gave informed consent (Etablissement Français du Sang, Rungis, France), using Ficoll-Paque®. Monocyte-derived dendritic cells (DCs) were produced from cells isolated using Percoll gradient by 5 days of culture in AIM-V medium (Invitrogen, Villebon-sur-Yvette, France) supplemented with 1,000 U/ml recombinant human (rh) IL-4 and rhGM-CSF (both from R&D Systems, Lille, France). Mature DCs were produced by two supplementary days of culture in the presence of LPS (1 µg/ml) and R848 (10µg/ml). CD4 T cells were isolated from autologous PBMCs by positive selection using magnetic labeling with anti-CD4 mAbs conjugated to magnetic microbeads followed by magnetic cell sorting, as recommended by the manufacturer (Miltenyi Biotec, Bergisch Gladbach, Germany). Immature DCs were loaded overnight at 37 °C with either 0.2 µM of rFVIII, 0.2 µM of ovalbumin, or 0.25 µM of KLH in 96-well U-bottom plates, while mature DCs were used for FVIII peptides (10 ug/ml). CD4 T cell lines were generated in vitro in IMDM (Invitrogen) supplemented with 10% human serum, 0.24 mM glutamine, 0.55 mM asparagine, 1.5 mM arginine (all amino acids from Sigma-Aldrich), 50 U/mL penicillin/50 μg/mL of streptomycin (Invitrogen), 20 IU/mL human IL-2, and 17 IU/ml human IL-7 (premium-grade; Miltenyi Biotec) by three once-per-week rounds of stimulation of CD4 T cells (200,000 per well) with autologous DCs (20,000 per well). 10,000 lymphocytes were collected at day 19 from each T cell line (expanded T cells contained in one well) and their specificity was assessed by using IFN-g ELISPOT.
The T cell lines and APCs were plated at equal number for both stimulated and unstimulated control conditions. […] The spot number was determined by using the ELISPOT Reader System (Autoimmun Diagnostika, Ebinger, Germany). HLA restriction was assessed using monoclonal antibodies (10 μg/ml) specific to HLA-DP (B7/21), HLA-DQ (SPVL3), or HLA-DR (L243).
Based on the T cell epitope prediction software NetMHCpan4.0 ([23]), we selected 63 20-mer peptides that are predicted for their ability to bind promiscuously, with a percentile score below 10%, at least four HLA class II molecules from a selection of 15 preponderant HLA-DR alleles in our panel (as shown in ST1). […] A total of 16 healthy donors with unrelated HLA typing (ST2) were used as sources of T cells to identify FVIII-specific CD4 T cell epitopes. Specific T cell lines were generated by in vitro T cell culture using FVIII and KLH. The peptide specificity of the T cell lines raised against FVIII was assessed by two independent IFN-γ ELISPOT using peptide pools and individual peptides. […] Furthermore, four independent healthy donors were used as sources of T cells to characterize the HLA restriction and to assess the reactivity of T cell lines generated with the 18 peptides toward rFVIII. T cell lines were amplified in vitro for 28 days through stimulation with the pool of 18 peptides and then tested through IFN-γ ELISPOT.

HLA-DRB1*0301 = HLA-DRB1*0301 (Homo sapiens, UniProt P01903+P01911, A100K/A102G/A103R/A169T/F55Y/I96L/K41T/L162R/M171V/P40S/Q125H/Q178H/Q39Y/R42S/S66N/T106N/T262R/W38E/Y61H); assay: Peptide-MHCII competition binding assay; settings: competition ELISA, pH 5.9, peptide 90.000nM – 0.9nM, HLA-DRB1 30 nM, biotinylated peptide 15nM, duplicate wells; ratios below 10 = good binding; reference peptide SFLLTDLINRRTPRVDGQ
Protocol: Quantitative peptide-MHCII competition binding assays were carried out to determine binding avidities of the 18 20-mer FVIII peptides to 6 HLA-DRB1. Data are presented as ratio between reference peptide IC50/FVIII-peptide IC50 tested. Briefly, non-biotinylated FVIII peptides have been diluted at a concentration of 20 mM in DMSO. 10-µl aliquots of serially diluted (90.000nM – 0.9nM in n-Octyl b-D-Glucopyranoside, 2.5 mg/ml in 1x phosphate buffer, pH 5.9) of non-biotinylated FVIII peptides, were added to duplicate wells of 96-well polypropylene plates. Serially diluted non-FVIII reference peptides known to bind to the specific HLA-DRB1 were added to separate wells as positive controls. Next, the biotinylated peptide at a concentration of 2mM was use to prepare 1000-fold pre-dilution to reach a final concentration of 15nM. The HLA-DRB1 proteins were diluted to 30 nM in n-Octyl β-D-Glucopyranoside, 2.5 mg/ml in 1x phosphate buffer, pH 5.9. […] SA-HRP (diluted 5000x in 1xPBS 0.1% Tween20) was added to each well. The plates were covered and incubated at room temperature for 60 min […] and washed. TMB (100 μl/well) was then added, and the plates were incubated at room temperature for 15-30 min. ELISA stopping solution (0.5M H2SO4) was added and then read on a FLUOstar OPTIMA fluorometer. Sigmoidal binding curves were simulated and IC50 values calculated for the FVIII peptides, based on their competition with the reference peptides for each HLA-DRB1. Data were reported as the ratio between the values of the tested peptide and of the reference peptide. Ratios below 10 correspond to good biding affinity.

Sequence | nb positive T cell lines [1] | cumulative donor coverage (%) [1] [%] | Donor coverage ( %) [1] [%] | responding donors [1] | response intensity ( %) [1] | Ratio IC50 DRB1*0301 (HLA-DRB1*0301)
YDTVVITLKNMASHPVSLHA [P100-119, 20-mer FVIII peptide, A1 domain] | 44 | 81 | 69 | 11 | 5,05% | 30
KLARLHYSGSINAWSTKEPF [P2068-2087, 20-mer FVIII peptide, C1 domain] | 20 |  | 50 | 8 | 2,29% | 
LLTRYLRIHPQSWVHQIALR [P2320-2339, 20-mer FVIII peptide, C2 domain] | 10 |  | 50 | 8 | 1,15% | 114
SLYISQFIIMYSLDGKKWQT [P2114-2133, 20-mer FVIII peptide, C1 domain] | 10 |  | 50 | 8 | 1,15% | 30
HPQSWVHQIALRMEVLGCEA [P2328-2347, 20-mer FVIII peptide, C2 domain] | 23 |  | 56 | 9 | 2,64% | 0.0
KKEEYKMALYNLYPGVFETV [P1986-2005, 20-mer FVIII peptide, A3 domain] | 18 |  | 50 | 8 | 2,06% | 
PPIIARYIRLHPTHYSIRST [P2161-2180] | 21 |  | 56 | 9 | 2,41% | 21
LGQFLLFCHISSHQHDGMEA [P322-341, 20-mer FVIII peptide, A1 domain] | 27 | 81 | 62 | 10 | 3,10% | 
KEPFSWIKVDLLAPMIIHGI [P2084-2103, 20-mer FVIII peptide, C1 domain] | 20 | 94 | 56 | 9 | 2,29% | 6.6
RHYFIAAVERLWDYGMSSSP [P1715-1734, 20-mer FVIII peptide, A3 domain] | 16 |  | 50 | 8 | 1,83% | 
INGYIMDTLPGLVMAQDQRI [P1940-1959, 20-mer FVIII peptide, A3 domain] | 14 | 94 | 56 | 9 | 1,61% | 
DHLFNIAKPRPPWMGLLGPT [P75-94, 20-mer FVIII peptide, A1 domain] | 38 | 81 | 69 | 11 | 4,36% | 40
ATRRYYLGAVELSWDYMQSD [P20-39, 20-mer FVIII peptide, A1 domain] | 43 | 81 | 62 | 10 | 4,93% | 850
LSHVDLVKDLNSGLIGALLV [P178-197, 20-mer FVIII peptide, A1 domain] | 19 | 81 | 56 | 9 | 2,18% | 0.05
VHSIFLEGHTFLVRNHRQAS [P285-304, 20-mer FVIII peptide, A1 domain] | 44 | 75 | 75 | 12 | 5,05% | 58
KARLHLQGRSNAWRPQVNNP [P2226-2245, 20-mer FVIII peptide, C2 domain] | 12 |  | 56 | 9 | 1,38% | 33
